# According to patent publication US11919858B2, “Aminonapthoquinone compounds and pharmaceutical composition for blocking ubiquitination-proteasome system in diseases” (Calgent Biotechnology Co., Ltd., priority 2015, dated 2024):
# Experiments:
# [1] = system: IL-6 production in human rheumatoid arthritis fibroblast-like synoviocyte cells; assay: IL-6 production in RAFLS cells (ELISA); format: cell-based; conditions: RA-FLS, 24 h
# Description: Cell culture. Human rheumatoid arthritis fibroblast-like synoviocytes (RAFLS) from Cell Application Inc. (San Diego, CA, USA) were grown in synoviocyte growth medium from the same supplier.
# IL-6 Determination. RA-FLS (2.5×10^4) was treated with various concentrations of MPT0L056 for 24 h, then the medium was collected and assayed for IL-6 using commercial ELISA kit.
# [2] = system: human MDA-MB-231 breast adenocarcinoma; assay: Human MDA-MB-231 breast cancer xenograft in female nude mice (TMU-MDA-MB-231-e0002)
# [3] = system: adjuvant-induced arthritis (AIA); assay: Adjuvant-induced arthritis (AIA) model; format: in vivo, Lewis rats
# Description: In vivo adjuvant-induced arthritis (AIA) model. Five-week-old male Lewis rats were obtained from the National Laboratory Animal Center (Taipei, Taiwan). Complete Freund's adjuvant (CFA) was prepared by suspending heat-killed Mycobacterium butyricum (Difco) in mineral oil at 3 mg/mL. CFA-induced arthritis was induced by intradermal injection of 100 μL, of the CFA emulsion into the base of the right hind paw on day 0. […] On days 0, 2, 6, 9, 13, 17, and 21, the animals were weighed and both hind paw volumes measured using a digital plethysmometer (Diagnostic & Research Instruments Co. Ltd, Taipei, Taiwan). On day 21, micro-computed tomography (micro-CT) of the paws was performed by the Core Facilities Center of the National Research Program for Biopharmaceuticals using an in vivo micro-CT scanner (Skyscan 1176, Bruker Corp., Kontich, Belgium) at 18 μm resolution and 180° scanning with a rotation step of 0.8o per image, 300 msec integration time, 70 keV photon energy, and 350 μA current.
# Quantification of volumetric bone mineral density (BMD) and bone volume (BV) was performed in a defined bone area ranging 12 mm from tarsals to the end of the calcaneus. The bone mineral content (BMC) was described by the product of BV and BMD.
# [4] = system: human A2780 ovarian adenocarcinoma; assay: Human A2780 ovarian cancer xenograft in female nude mice (TMU-A2780-e0001); format: in vivo
# ITCH [5] = target: T1, ITCH (Homo sapiens, UniProt Q96J02); assay: Blocking of ITCH self-ubiquitination, in vitro assay; format: biochemical; conditions: FIG. 1
# Description: (§1) MPT0L056 of the invention was used to test the blocking of ITCH self-ubiquitination. […] [Reference for in vitro assay: Scialpi F, Malatesta M, Peschiaroli A, Rossi M, Melino G, and Bernassola F. Itch self-polyubiquitylation occurs through lysine-63 linkages. Biochem Pharmacol. 2008 Dec. 1; 76(11):1515-21. Reference for in vivo assay: Chang L, Kamata H, Solinas G, Luo J L, Maeda S, Venuprasad K, Liu Y C, and Karin M. The E3 ubiquitin ligase itch couples JNK activation to TNFalpha-induced cell death by inducing c-FLIP(L) turnover. Cell. 2006 Feb. 10; 124(3):601-131
# ITCH [6] = target: T1, ITCH; assay: Blocking of ITCH self-ubiquitination, in vivo assay; format: cell-based; conditions: concentration of 0.5 um and 5 um, FIG. 2
# Description: as §1
# HL-60 = assay: Growth inhibition assay; format: cell-based; conditions: Homo sapiens; HL-60 (Leukemia), 48 hours
# Description: (§2) Cells were seeded in 96-well plastic plates and exposed to MPT0L056 for 48 hours. Cell viability was assessed using the 3-(4,5-dimethylthiazol-2-yl)-2,5-diphenyltetrazolium bromide assay. Growth inhibition was expressed as the percentage of surviving cells in drug-treated versus DMSO-treated control cells.
# (§3) The compounds of the invention were subjected to growth inhibition assay.
# HCT-116 = assay: Growth inhibition assay; format: cell-based; conditions: Homo sapiens; HCT-116 (Colorectal cancer), 48 hours; read-out: GI50
# Description: as §2, §3
# MDA-MB-231 = assay: Growth inhibition assay; format: cell-based; conditions: Homo sapiens; MDA-MB-231 (Breast cancer), 48 hours; read-out: GI50
# Description: as §2, §3
# Hep 3B = assay: Growth inhibition assay; format: cell-based; conditions: Homo sapiens, Hep3B; Hep 3B (Liver cancer), 48 hours; read-out: GI50
# Description: as §2, §3
# [7] = system: IL-6 production in murine RAW264.7 macrophage cells; assay: IL-6 production in LPS-stimulated RAW264.7 macrophage cells (ELISA); format: cell-based; conditions: Mus musculus, RAW 264.7 cells, pretreated 1 h, LPS (25 ng/mL) 24 h
# Description: Cell culture. The RAW264.7 mouse macrophage cells were purchased from the Bioresource Collection and Research Center (Hsinchu, Taiwan) and the cells cultured at 37° C. in 5% CO2/95% air in, respectively, 90% Ham's F-12 or Dulbecco's modified Eagle medium, both containing 10% heat-inactivated fetal bovine serum (FBS) (Invitrogen Life Technologies, Carlsbad, CA) and 1% penicillin/streptomycin (Biological Industries, Israel).
# IL-6 Determination. To determine the effect of MPT0L056 on the production of cytokine IL-6 from LPS-stimulated cells, RAW 264.7 cells (1×10^6) were plated and pretreated in the presence or absence of MPT0L056 for 1 h, and then stimulated with LPS (25 ng/mL) for 24 h at 37° C. Supernatants were collected and the concentration of cytokines IL-6 was measured by ELISA kit.
# [8] = system: human RPMI8226 multiple myeloma; assay: Human RPMI8226 multiple myeloma xenograft in female nude mice (TMU-RPMI8226-e0001); format: in vivo
# Description: The 42-day study utilized five groups of mice (n=6) bearing established human PRMI8226 multiple myeloma with mean volumes of ˜85 mm^3 on D1. […] (FIG. 3).
# [9] = MPT0L056 25 mg/kg p.o. once every day for 42 days
# [10] = MPT0L056 50 mg/kg p.o. once every day for 42 days
# T1 sequence (Q96J02 whole entry, species assumed): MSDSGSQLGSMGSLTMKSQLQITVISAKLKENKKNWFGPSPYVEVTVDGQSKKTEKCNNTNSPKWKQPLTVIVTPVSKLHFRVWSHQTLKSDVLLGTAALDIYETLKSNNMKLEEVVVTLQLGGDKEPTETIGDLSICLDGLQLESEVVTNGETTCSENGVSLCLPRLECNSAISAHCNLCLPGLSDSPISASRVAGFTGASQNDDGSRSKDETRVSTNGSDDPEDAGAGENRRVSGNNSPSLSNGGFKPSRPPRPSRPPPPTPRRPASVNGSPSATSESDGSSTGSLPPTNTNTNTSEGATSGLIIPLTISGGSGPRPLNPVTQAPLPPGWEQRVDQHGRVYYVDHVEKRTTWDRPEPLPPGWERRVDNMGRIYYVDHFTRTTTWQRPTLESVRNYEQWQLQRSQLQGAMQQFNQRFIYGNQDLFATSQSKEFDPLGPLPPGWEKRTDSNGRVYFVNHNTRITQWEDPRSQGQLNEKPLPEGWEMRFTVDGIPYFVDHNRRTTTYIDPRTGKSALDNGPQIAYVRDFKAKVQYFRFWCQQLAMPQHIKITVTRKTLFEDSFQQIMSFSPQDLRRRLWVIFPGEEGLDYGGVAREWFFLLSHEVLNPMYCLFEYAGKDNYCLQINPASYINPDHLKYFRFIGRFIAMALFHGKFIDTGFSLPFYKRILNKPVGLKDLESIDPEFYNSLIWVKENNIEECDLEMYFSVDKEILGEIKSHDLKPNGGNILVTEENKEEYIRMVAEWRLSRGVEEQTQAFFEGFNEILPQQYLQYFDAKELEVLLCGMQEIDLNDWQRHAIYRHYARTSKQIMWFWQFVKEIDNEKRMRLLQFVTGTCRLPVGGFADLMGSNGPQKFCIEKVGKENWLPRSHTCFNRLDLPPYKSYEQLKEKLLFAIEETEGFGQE
smiles,measurement,setting,value
O=C(Nc1ccncc1)c1ccc(CNC2=C(Cl)C(=O)c3ccccc3C2=O)cc1 [MPT0L056],IC50,[1],7260 nM
same,tumor growth delay,[2]; MPT0L056 25 mg/kg p.o. once every day for ten days,did not significantly express tumor growth delay
same,antitumor activity,[2]; MPT0L056 50 mg/kg p.o. once every day for ten days,produced significant antitumor activity
same,antitumor activity,[2]; MPT0L056 100 mg/kg p.o. once every day for ten days,produced significant antitumor activity
same,body weight change,"[2]; MPT0L056 100, 50 and 25 mg/kg, FIG. 6",did not significantly affect the animal body weight
same,bone mineral content (BMC) loss,"[3]; AIA model, FIG. 17",can prevent
same,bone mineral density (BMD) loss,"[3]; AIA model, FIG. 17",can prevent
same,development of arthritis (micro-CT),"[3]; MPT0L056 25 mg/kg, po, qd, day 2 to day 21, FIG. 15",inhibits development of arthritis
same,paw swelling,"[3]; MPT0L056 25 mg/kg, po, qd, day 2 to day 21, FIG. 16",significantly reduces paw swelling
same,antitumor activity,[4]; MPT0L056 50 mg/kg (so in the source) p.o. once every day to the end,but not 50 mg/kg (P>0.05) produced significant antitumor activity
same,antitumor activity,[4]; MPT0L056 200 mg/kg p.o. once every day to the end,produced significant antitumor activity
same,body weight change,"[4]; MPT0L056 100 and 200 mg/kg, FIG. 8",did not significantly affect the animal body weight
same,blocking of ITCH self-ubiquitination (Lys-dependent),ITCH [5],blocks ITCH self-ubiquitnation (Lys-dependent) efficiently
same,blocking of ITCH's in vivo self-ubiquitination,ITCH [6],blocks ITCH's in vivo self-ubiquitination
same,GI50,HL-60,1600 nM
same,GI50,HCT-116,4300 nM
same,GI50,MDA-MB-231,2900 nM
same,GI50,Hep 3B,1400 nM
same,IC50,[7],1210 nM
same,antitumor activity,[8]; [9],produced significant antitumor activity
same,mice with complete regression (CR),[8]; [9],Two of six
same,antitumor activity,[8]; [10],produced significant antitumor activity
same,mice with complete regression (CR),[8]; [10],Two of six
same,body weight change,"[8]; MPT0L056 50 and 25 mg/kg, all doses tested, FIG. 4",without significantly body weight loss
